Like-named read-outs stand apart in the source and are kept apart here.
Tests used:
Type in all cases: biochemical
CYP2C19 = target: T1, CYP2C19 (Homo sapiens, UniProt P33261); assay: Cocktail assay for CYPs in human liver microsomes: CYP2C19 (mephenytoin 4′-hydroxylation); conditions: 30 μM mephenytoin, 10 min at 37° C., 6 concentrations up to 10 μM
T1 construct: 0.1 mg/mL protein human liver microsomes (BD Gentest); tissue BD Gentest; host or cells: human liver microsomes

CYP2D6 = target: T2, CYP2D6 (Homo sapiens, UniProt P10635); assay: Cocktail assay for CYPs in human liver microsomes: CYP2D6 (dextromethorphan O-demethylation); conditions: 5 μM dextromethorphan, 10 min at 37° C., 6 concentrations up to 10 μM
T2 construct: 0.1 mg/mL protein human liver microsomes (BD Gentest); tissue BD Gentest; host or cells: human liver microsomes

CYP2C9 = target: T3, CYP2C9 (Homo sapiens, UniProt P11712); assay: Cocktail assay for CYPs in human liver microsomes: CYP2C9 (diclofenac 4′-hydroxylation); conditions: 5 μM diclofenac, 10 min at 37° C., 6 concentrations up to 10 μM
T3 construct: 0.1 mg/mL protein human liver microsomes (BD Gentest); tissue BD Gentest; host or cells: human liver microsomes

CYP1A2 = target: T4, CYP1A2 (Homo sapiens, UniProt P05177); assay: Cocktail assay for CYPs in human liver microsomes: CYP1A2 (phenacetin O-deethylation)
T4 construct: 0.1 mg/mL protein human liver microsomes (BD Gentest); tissue BD Gentest; host or cells: human liver microsomes
T4 sequence (P05177 1-516): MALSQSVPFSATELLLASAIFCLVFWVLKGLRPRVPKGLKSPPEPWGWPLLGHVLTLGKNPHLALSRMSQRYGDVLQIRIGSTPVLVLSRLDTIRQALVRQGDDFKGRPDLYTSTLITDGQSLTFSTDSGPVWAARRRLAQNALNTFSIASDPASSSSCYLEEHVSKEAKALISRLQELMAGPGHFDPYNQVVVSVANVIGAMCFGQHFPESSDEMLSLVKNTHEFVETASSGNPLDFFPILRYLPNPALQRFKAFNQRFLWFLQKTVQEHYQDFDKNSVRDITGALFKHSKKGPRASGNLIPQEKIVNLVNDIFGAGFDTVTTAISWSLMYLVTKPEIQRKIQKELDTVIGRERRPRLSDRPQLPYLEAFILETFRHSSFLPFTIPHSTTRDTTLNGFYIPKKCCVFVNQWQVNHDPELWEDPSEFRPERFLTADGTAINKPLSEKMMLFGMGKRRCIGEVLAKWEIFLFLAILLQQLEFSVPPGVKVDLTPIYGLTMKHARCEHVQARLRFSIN

CYP3A4 = target: T5, CYP3A4 (Homo sapiens, UniProt P08684); assay: Cocktail assay for CYPs in human liver microsomes: CYP3A4 (midazolam 1′-hydroxylation); conditions: 2 μM midazolam, 10 min at 37° C., 6 concentrations up to 10 μM
T5 construct: 0.1 mg/mL protein human liver microsomes (BD Gentest); tissue BD Gentest; host or cells: human liver microsomes

[1] = human liver microsomes 0.1 mg/mL, read-out: IC50 (nM) CYP2C19
[2] = human liver microsomes 0.1 mg/mL, read-out: IC50 (nM) CYP2D6
[3] = human liver microsomes 0.1 mg/mL, read-out: IC50 (nM) CYP2C9
[4] = human liver microsomes 0.1 mg/mL, 10 μM phenacetin, 10 min at 37° C., 6 concentrations up to 10 μM, read-out: IC50 (nM) CYP1A2
[5] = human liver microsomes 0.1 mg/mL, read-out: IC50 (nM) CYP3A4
[6] = IC50 (nM) CYP2C19, human liver microsomes 0.1 mg/mL
[7] = IC50 (nM) CYP2D6, human liver microsomes 0.1 mg/mL
[8] = IC50 (nM) CYP2C9, human liver microsomes 0.1 mg/mL
[9] = IC50 (nM) CYP3A4, human liver microsomes 0.1 mg/mL

T3 sequence (P11712 whole entry): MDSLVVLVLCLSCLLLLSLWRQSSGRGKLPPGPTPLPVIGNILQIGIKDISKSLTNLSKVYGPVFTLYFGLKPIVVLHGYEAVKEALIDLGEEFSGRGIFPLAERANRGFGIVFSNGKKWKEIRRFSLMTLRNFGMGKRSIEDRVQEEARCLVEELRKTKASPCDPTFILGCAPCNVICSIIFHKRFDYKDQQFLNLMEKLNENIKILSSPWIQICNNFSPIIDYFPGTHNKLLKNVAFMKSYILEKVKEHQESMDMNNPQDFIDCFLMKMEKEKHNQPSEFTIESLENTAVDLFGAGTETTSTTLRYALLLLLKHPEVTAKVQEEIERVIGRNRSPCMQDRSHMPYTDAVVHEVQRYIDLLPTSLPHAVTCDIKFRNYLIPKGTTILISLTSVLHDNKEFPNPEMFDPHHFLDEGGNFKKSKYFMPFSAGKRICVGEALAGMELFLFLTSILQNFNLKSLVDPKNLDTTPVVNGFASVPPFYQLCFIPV
T1 sequence (P33261 whole entry): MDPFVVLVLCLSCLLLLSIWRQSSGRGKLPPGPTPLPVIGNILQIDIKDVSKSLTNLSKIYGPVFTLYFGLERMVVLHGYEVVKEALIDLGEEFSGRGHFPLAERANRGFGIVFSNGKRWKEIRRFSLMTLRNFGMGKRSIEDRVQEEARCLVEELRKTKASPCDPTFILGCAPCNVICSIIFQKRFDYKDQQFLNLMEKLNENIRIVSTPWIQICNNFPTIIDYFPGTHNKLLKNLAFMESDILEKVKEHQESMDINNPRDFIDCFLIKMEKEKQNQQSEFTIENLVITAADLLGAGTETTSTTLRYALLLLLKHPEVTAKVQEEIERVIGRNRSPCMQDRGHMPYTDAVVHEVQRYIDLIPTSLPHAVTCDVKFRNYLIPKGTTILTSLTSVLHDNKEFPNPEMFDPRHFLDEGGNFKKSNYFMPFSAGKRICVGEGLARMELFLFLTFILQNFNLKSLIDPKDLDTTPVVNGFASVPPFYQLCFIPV
T2 sequence (P10635 whole entry): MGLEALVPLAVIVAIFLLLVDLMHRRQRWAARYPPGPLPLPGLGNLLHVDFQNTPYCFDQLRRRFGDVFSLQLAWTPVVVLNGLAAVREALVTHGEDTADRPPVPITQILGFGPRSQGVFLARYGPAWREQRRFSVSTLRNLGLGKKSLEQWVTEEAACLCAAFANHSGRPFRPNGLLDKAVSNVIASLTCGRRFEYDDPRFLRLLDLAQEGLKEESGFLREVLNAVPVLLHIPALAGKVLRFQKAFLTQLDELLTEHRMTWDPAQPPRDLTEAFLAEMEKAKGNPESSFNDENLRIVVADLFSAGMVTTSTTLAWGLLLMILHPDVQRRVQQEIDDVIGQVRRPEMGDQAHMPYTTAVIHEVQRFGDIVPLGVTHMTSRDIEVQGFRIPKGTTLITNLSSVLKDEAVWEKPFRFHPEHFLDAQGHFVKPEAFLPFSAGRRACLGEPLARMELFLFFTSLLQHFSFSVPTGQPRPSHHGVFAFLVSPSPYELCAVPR
T5 sequence (P08684 whole entry): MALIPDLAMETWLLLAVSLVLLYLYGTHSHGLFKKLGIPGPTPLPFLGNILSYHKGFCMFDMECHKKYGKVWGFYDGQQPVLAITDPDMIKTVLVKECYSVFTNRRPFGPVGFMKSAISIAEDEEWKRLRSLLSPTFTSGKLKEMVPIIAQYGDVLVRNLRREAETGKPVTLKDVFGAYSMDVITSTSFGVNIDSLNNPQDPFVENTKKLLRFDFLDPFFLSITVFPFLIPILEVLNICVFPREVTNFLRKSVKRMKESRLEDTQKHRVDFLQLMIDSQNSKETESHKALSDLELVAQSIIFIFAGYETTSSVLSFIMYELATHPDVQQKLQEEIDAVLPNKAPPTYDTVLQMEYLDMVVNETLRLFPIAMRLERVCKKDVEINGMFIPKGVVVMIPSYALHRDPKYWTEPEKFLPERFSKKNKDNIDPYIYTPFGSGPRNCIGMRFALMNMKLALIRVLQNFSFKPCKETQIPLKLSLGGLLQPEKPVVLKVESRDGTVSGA

| Structure (SMILES) | IC50 (CYP2C19; [1]) [nM] | IC50 (CYP2D6; [2]) [nM] | IC50 (CYP2C9; [3]) [nM] | IC50 (CYP1A2; [4]) [nM] | IC50 (CYP3A4; [5]) [nM] | IC50 (CYP2C19; [6]) [nM] | IC50 (CYP2D6; [7]) [nM] | IC50 (CYP2C9; [8]) [nM] | IC50 (CYP1A2) [nM] | IC50 (CYP3A4; [9]) [nM] |
| --- | --- | --- | --- | --- | --- | --- | --- | --- | --- | --- |
| C[C@H](c1ccc(C#N)cc1)n1cncc1CN1CCN(c2ccccc2)C(C(=O)N2CCCCC2)C1 (single isomer, unassigned) [Compound 45a] | 5500 | > 10000 | 7770 | > 10000 | 12 |  |  |  |  |  |
| C[C@H](c1ccc(C#N)cc1)n1cncc1CN1CCN(c2ccccc2)C(C(=O)N2CCCCC2)C1 (single isomer, unassigned) [Compound 45b] | 5180 | > 10000 | 4000 | > 10000 | 20 |  |  |  |  |  |
| C[C@H](c1ccc(F)cc1)n1cncc1CN1CCN(C(=O)c2ccccc2)C(c2ccccc2)C1 (single isomer, unassigned) [Compound 50a] | 4330 | 4000 | 4360 | > 10000 | 16 |  |  |  |  |  |
| C[C@H](c1ccc(F)cc1)n1cncc1CN1CCN(C(=O)c2ccccc2)C(c2ccccc2)C1 (single isomer, unassigned) [Compound 50b] | 4400 | > 10000 | 1280 | > 10000 | 5 |  |  |  |  |  |
| C[C@H](c1ccc(F)cc1)n1cncc1CN1CCN(C(=O)C2CCOCC2)C(c2ccccc2)C1 (single isomer, unassigned) [Compound 52a] | 8490 | > 10000 | > 10000 | > 10000 | 7 |  |  |  |  |  |
| C[C@H](c1ccc(F)cc1)n1cncc1CN1CCN(C(=O)C2CCOCC2)C(c2ccccc2)C1 (single isomer, unassigned) [Compound 52b] | 3670 | > 10000 | 6200 | > 10000 | 27 |  |  |  |  |  |
| CCC1(C#N)CCN(Cc2cncn2[C@H](C)c2ccc(F)cc2)CC1 [Compound 1, (R)-4-Ethyl-1-((1-(1-(4-fluorophenyl)ethyl)-1H-imidazol-5-yl)methyl)piperidine-4-carbonitrile] | 6220 | > 10000 | 7370 | > 10000 | 20 |  |  |  |  |  |
| CC(C)C1(C#N)CCN(Cc2cncn2[C@H](C)c2ccc(F)cc2)CC1 [Compound 2, (R)-1-((1-(1-(4-fluorophenyl)ethyl)-1H-imidazol-5-yl)methyl)-4-isopropylpiperidine-4-carbonitrile] | > 10000 | > 10000 | > 10000 | > 10000 | 18 |  |  |  |  |  |
| C[C@H](c1ccc(F)cc1)n1cncc1CN1CCC(C)(C#N)CC1 [Compound 3, (R)-1-((1-(1-(4-fluorophenyl)ethyl)-1H-imidazol-5-yl)methyl)-4-methylpiperidine-4-carbonitrile] | > 10000 | 8710 | > 10000 | > 10000 | 37 |  |  |  |  |  |
| CC1(C#N)CCN(Cc2cncn2Cc2nc3ccccc3s2)CC1 [Compound 4, 1-((1-(benzo[d]thiazol-2-ylmethyl)-1H-imidazol-5-yl)methyl)-4-methylpiperidine-4-carbonitrile] | 2680 | > 10000 | 3270 | > 10000 | 58 |  |  |  |  |  |
| C[C@H](c1ccc(F)cc1)n1cncc1CN1CCC(C#N)(C2CCCC2)CC1 [Compound 5, (R)-4-cyclopentyl-1-((1-(1-(4-fluorophenyl)ethyl)-1H-imidazol-5-yl)methyl)piperidine-4-carbonitrile] | 3740 | 7330 | 3250 | 5570 | 15 |  |  |  |  |  |
| CCCC1(C#N)CCN(Cc2cncn2[C@H](C)c2ccc(F)cc2)CC1 [Compound 6, (R)-1-((1-(1-(4-fluorophenyl)ethyl)-1H-imidazol-5-yl)methyl)-4-propylpiperidine-4-carbonitrile] | 7920 | 4960 | 5670 | > 10000 | 27 |  |  |  |  |  |
| C[C@H](c1ccc(F)cc1)n1cncc1CN1CCC(C#N)(C2CCOCC2)CC1 [Compound 7, (R)-1-((1-(1-(4-fluorophenyl)ethyl)-1H-imidazol-5-yl)methyl)-4-(tetrahydro-2H-pyran-4-yl)piperidine-4-carbonitrile] | > 10000 | 8480 | 8170 | > 10000 | 21 |  |  |  |  |  |
| CC(C)CC1(C#N)CCN(Cc2cncn2[C@H](C)c2ccc(F)cc2)CC1 [Compound 8, (R)-1-((1-(1-(4-fluorophenyl)ethyl)-1H-imidazol-5-yl)methyl)-4-isobutylpiperidine-4-carbonitrile] | 3250 | 2490 | 2530 | 9180 | 22 |  |  |  |  |  |
| CCc1noc(C2(C)CCN(Cc3cncn3[C@H](C)c3ccc(F)cc3)CC2)n1 [Compound 9, (R)-3-ethyl-5-(1-((1-(1-(4-fluorophenyl)ethyl)-1H-imidazol-5-yl)methyl)-4-methylpiperidin-4-yl)-1,2,4-oxadiazole] | 2270 | 2520 | 2510 | > 10000 | 21 |  |  |  |  |  |
| Cc1noc(C2(C)CCN(Cc3cncn3[C@H](C)c3ccc(F)cc3)CC2)n1 [Compound 10, (R)-5-(1-((1-(1-(4-fluorophenyl)ethyl)-1H-imidazol-5-yl)methyl)-4-methylpiperidin-4-yl)-3-methyl-1,2,4-oxadiazole] | 7020 | 2100 | 2330 | > 10000 | 17 |  |  |  |  |  |
| CC(C)c1noc(C2(C)CCN(Cc3cncn3[C@H](C)c3ccc(F)cc3)CC2)n1 [Compound 11, (R)-5-(1-((1-(1-(4-fluorophenyl)ethyl)-1H-imidazol-5-yl)methyl)-4-methylpiperidin-4-yl)-3-isopropyl-1,2,4-oxadiazole] | 3310 | 5990 | 2880 | 5070 | 21 |  |  |  |  |  |
| N#Cc1ccc(C2(n3cncc3CN3CCC(C#N)(c4ccc(F)cc4)CC3)CC2)cc1 [Compound 12, 1-((1-(1-(4-cyanophenyl)cyclopropyl)-1H-imidazol-5-yl)methyl)-4-(4-fluorophenyl)piperidine-4-carbonitrile] |  |  |  |  |  | 3980 | 6360 | 5320 | 1470 | 50 |
| C[C@H](c1ccc(F)cc1)n1cncc1CN1CCC(C#N)(c2ccccn2)CC1 [Compound 13, (R)-1-((1-(1-(4-fluorophenyl)ethyl)-1H-imidazol-5-yl)methyl)-4-(pyridin-2-yl)piperidine-4-carbonitrile] | 6400 | > 10000 | 4670 | > 10000 | 10 |  |  |  |  |  |
| C[C@H](c1ccc(F)cc1)n1cncc1CN1CCC(C#N)(c2ccccc2)CC1 [Compound 14, (R)-1-((1-(1-(4-fluorophenyl)ethyl)-1H-imidazol-5-yl)methyl)-4-phenylpiperidine-4-carbonitrile] |  |  |  |  |  | 2600 | 3700 | 2200 | 5520 | 17 |
| COC(=O)C1(c2ccccc2)CCN(Cc2cncn2[C@H](C)c2ccc(F)cc2)CC1 [Compound 15, (R)-methyl 1-((1-(1-(4-fluorophenyl)ethyl)-1H-imidazol-5-yl)methyl)-4-phenylpiperidine-4-carboxylate] |  |  |  |  |  | 1250 | 2080 | 1390 | 2420 | 16 |
| CC(c1ccccc1-c1ccc(F)cc1)n1cncc1CN1CCC(F)(F)C1 (stereo not shown) [Compound 16, 5-((3,3-difluoropyrrolidin-1-yl)methyl)-1-(1-(4′-fluoro-[1,1′-biphenyl]-2-yl)ethyl)-1H-imidazole] | 4270 | 1930 | 7470 | > 10000 | 18 |  |  |  |  |  |
| CC(c1ccccc1-c1ccc(F)cc1)n1cncc1CN1CCC(O)C1 (stereo not shown) [Compound 17, 1-((1-(1-(4′-fluoro-[1,1′-biphenyl]-2-yl)ethyl)-1H-imidazol-5-yl)methyl) pyrrolidin-3-ol] | > 10000 | 4040 | > 10000 | > 10000 | 29 |  |  |  |  |  |

From patent publication US10745377B2, “Piperidine or piperazine linked imidazole and triazole derivatives and methods of use” (MERCK SHARP & DOHME CORP., priority 2013, dated 2020)
